Laboratory results: paper PMC4774911, “Biochemical Screening of Five Protein Kinases from Plasmodium falciparum against 14,000 Cell-Active Compounds” (PLoS ONE, 2016)
“And” between values parts separate entries of the source, which are not always exact repeats. Equal entries are not always repeated.

Legend:
Assay in all cases: biochemical
Design in all cases: endogenous in cells; host or cells: K562 cell extract; species or system K562 (extract); replicate k of n = 2 (each experiment ID is one independent experiment; two experiment IDs per compound)
Conditions in all cases: read-out: KDapp
[1] = target: T1, TGFBR1 (Homo sapiens, UniProt P36897)
T1 sequence (P36897 1-503): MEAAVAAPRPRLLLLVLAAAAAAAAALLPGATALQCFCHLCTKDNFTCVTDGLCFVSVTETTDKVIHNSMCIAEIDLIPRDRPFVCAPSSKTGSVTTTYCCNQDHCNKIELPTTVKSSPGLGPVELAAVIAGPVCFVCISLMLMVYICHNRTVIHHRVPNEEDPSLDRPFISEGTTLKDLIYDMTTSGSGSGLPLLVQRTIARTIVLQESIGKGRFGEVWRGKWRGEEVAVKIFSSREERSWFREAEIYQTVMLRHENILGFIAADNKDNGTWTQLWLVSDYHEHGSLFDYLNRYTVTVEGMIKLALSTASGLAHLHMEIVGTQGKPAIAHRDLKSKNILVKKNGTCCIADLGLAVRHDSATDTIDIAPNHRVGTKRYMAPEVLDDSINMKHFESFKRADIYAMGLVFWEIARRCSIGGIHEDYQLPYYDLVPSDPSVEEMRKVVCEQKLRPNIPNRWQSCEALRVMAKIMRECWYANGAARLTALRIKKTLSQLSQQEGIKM

[2] = target: NTRK1 (Homo sapiens, UniProt P04629)
Chain of NTRK1 (P04629 whole entry): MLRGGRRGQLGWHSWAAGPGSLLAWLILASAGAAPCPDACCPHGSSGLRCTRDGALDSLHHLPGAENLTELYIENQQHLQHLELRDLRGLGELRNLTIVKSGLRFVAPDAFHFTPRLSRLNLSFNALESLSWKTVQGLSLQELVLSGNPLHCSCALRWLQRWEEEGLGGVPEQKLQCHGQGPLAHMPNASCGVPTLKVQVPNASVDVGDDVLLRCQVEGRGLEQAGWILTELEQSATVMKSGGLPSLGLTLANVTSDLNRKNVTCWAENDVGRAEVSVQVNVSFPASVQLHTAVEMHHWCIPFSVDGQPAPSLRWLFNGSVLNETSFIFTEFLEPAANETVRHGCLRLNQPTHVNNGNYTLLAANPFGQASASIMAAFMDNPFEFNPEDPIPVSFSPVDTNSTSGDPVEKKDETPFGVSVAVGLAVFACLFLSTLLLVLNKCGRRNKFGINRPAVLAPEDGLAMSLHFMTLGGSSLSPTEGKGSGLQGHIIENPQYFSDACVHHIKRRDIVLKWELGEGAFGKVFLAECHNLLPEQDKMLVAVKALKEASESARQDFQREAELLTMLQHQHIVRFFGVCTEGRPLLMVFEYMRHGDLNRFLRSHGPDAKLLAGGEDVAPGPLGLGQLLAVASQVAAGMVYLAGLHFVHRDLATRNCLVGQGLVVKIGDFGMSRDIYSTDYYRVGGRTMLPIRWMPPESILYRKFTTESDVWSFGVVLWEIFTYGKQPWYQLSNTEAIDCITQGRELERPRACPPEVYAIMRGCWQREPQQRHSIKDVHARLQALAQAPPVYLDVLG

[3] = target: RPS6KA3 (Homo sapiens, UniProt P51812)
Chain of RPS6KA3 (P51812 whole entry): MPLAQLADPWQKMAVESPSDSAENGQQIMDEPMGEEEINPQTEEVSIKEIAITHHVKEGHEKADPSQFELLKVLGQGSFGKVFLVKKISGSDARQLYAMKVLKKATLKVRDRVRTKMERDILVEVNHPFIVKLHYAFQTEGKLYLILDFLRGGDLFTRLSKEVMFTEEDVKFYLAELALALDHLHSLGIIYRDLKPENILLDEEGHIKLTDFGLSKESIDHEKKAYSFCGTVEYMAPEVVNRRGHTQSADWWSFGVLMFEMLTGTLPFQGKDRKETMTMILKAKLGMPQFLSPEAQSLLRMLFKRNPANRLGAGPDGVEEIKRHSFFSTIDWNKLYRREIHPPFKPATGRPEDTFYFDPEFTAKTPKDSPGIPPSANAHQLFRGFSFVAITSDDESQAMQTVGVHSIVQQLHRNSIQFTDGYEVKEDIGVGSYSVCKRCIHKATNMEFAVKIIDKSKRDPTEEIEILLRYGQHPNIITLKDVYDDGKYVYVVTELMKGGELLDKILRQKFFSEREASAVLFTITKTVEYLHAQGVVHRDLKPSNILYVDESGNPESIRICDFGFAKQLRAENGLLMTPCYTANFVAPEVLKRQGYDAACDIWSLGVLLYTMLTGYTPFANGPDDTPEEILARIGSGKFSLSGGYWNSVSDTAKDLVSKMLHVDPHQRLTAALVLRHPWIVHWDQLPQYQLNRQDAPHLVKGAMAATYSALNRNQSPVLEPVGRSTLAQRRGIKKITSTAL

[4] = target: T2, ULK1 (Homo sapiens, UniProt O75385)
T2 sequence (O75385 1-1050): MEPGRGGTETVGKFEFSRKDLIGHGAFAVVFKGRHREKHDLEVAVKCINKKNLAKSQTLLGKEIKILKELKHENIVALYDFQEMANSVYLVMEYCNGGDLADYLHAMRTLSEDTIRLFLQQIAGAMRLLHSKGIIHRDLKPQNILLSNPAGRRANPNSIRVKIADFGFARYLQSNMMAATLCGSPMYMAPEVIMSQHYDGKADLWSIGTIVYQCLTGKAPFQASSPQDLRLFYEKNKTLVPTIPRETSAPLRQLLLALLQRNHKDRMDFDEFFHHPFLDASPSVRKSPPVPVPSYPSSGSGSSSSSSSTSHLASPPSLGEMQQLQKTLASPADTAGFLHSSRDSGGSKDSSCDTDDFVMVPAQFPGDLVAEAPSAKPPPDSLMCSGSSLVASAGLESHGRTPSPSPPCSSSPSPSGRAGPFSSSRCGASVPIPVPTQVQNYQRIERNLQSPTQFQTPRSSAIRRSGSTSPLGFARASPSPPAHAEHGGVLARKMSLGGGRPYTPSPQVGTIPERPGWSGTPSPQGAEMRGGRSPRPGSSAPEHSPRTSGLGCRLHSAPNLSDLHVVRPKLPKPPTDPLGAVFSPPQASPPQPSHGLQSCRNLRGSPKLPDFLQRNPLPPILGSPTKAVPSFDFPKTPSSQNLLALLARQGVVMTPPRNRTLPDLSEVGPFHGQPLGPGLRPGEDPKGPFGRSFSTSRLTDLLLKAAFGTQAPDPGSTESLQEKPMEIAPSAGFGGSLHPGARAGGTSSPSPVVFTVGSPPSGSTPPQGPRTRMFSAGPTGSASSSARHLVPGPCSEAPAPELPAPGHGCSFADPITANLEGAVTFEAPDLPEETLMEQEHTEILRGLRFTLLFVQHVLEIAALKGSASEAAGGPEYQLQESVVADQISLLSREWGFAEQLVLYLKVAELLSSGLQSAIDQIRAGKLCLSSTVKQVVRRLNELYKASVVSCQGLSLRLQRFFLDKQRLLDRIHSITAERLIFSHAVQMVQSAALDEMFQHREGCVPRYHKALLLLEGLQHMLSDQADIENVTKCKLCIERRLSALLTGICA

[5] = target: KIT (Homo sapiens, UniProt P10721)
Chain of KIT (P10721 whole entry): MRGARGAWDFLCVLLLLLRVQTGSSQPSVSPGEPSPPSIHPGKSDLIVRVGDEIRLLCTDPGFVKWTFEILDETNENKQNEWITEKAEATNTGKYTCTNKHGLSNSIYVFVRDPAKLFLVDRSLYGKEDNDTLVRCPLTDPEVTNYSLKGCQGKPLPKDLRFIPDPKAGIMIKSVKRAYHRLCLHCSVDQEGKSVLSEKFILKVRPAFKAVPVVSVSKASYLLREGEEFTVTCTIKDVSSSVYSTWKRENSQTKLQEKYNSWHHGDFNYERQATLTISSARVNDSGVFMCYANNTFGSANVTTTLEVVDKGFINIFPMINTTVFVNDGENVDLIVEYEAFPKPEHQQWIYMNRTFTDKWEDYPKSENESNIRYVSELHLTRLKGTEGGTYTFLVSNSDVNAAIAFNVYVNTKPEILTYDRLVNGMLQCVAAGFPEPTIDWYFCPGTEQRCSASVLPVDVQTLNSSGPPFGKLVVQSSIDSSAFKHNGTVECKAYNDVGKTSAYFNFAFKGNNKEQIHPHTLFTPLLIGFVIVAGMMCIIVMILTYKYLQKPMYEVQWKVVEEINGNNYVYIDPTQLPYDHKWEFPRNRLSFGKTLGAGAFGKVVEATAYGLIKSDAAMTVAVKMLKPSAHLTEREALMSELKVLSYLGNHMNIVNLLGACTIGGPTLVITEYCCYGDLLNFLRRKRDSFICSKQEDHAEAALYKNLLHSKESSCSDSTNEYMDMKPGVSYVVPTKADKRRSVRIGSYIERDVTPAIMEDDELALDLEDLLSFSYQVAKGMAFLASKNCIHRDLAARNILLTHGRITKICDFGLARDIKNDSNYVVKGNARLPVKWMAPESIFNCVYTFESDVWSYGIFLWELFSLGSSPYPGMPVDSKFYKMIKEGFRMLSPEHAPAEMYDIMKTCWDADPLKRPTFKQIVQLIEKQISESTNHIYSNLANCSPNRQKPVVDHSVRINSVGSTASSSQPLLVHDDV

| Compound | Kd [1] | Kd [2] | Kd [3] | Kd [4] | Kd [5] |
| --- | --- | --- | --- | --- | --- |
| Cl.NCC1(c2nc(-c3ccc(Cl)c(O)c3)c(-c3ccncc3)[nH]2)CCCCC1 [TCMDC-141154] | 59.6 nM and 87.9 nM |  |  |  |  |
| CN1CCN(c2ccc(Nc3ncc(C#N)c(Nc4ccccc4C(N)=O)n3)cc2)CC1.Cl [TCMDC-134116] |  | 1030 nM and 701 nM | 60.8 nM and 82 nM | 95 nM | 1100 nM |
